11 molecules from ChEMBL document CHEMBL5120882, “Medicinal Chemistry Perspective on Targeting Mono-ADP-Ribosylating PARPs with Small Molecules” (J Med Chem, 2022) can be followed below.

For test [1], the system named is HeLa. The test is described as follows: Cytoprotective activity against human HeLa cells assessed as rescue of PARP10-induced cell death by measuring number of colonies treated for 10 days followed by compound replenishment for every 48 hrs and fresh medium addition for every 4 days by methylene blue staining based assay. It is filed as functional.
The nature of test [2]: Inhibition of PARP15 Y576L mutant (unknown origin) expressed in Escherichia coli Rosette2 (DE3). On the set-up: species or system Homo sapiens.
Test [3] has as its target T1, Protein mono-ADP-ribosyltransferase PARP16 (Homo sapiens, UniProt Q8N5Y8).
T1 sequence (Q8N5Y8 whole entry): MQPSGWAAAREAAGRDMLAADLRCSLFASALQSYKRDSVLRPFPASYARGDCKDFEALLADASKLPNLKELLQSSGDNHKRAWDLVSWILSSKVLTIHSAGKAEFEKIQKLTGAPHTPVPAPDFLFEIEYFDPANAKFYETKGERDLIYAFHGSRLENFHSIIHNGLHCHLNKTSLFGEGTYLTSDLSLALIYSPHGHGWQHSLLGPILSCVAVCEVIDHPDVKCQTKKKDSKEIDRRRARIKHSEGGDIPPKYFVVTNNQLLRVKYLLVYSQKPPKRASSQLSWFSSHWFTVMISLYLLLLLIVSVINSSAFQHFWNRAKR
The test is described as follows: Inhibition of PARP16 (unknown origin) using IRE-1 as substrate incubated for 1 hr by chemiluminescence assay.

The target of test [4] is T2, Protein mono-ADP-ribosyltransferase PARP3 (Homo sapiens, UniProt Q9Y6F1).
T2 sequence (Q9Y6F1 whole entry): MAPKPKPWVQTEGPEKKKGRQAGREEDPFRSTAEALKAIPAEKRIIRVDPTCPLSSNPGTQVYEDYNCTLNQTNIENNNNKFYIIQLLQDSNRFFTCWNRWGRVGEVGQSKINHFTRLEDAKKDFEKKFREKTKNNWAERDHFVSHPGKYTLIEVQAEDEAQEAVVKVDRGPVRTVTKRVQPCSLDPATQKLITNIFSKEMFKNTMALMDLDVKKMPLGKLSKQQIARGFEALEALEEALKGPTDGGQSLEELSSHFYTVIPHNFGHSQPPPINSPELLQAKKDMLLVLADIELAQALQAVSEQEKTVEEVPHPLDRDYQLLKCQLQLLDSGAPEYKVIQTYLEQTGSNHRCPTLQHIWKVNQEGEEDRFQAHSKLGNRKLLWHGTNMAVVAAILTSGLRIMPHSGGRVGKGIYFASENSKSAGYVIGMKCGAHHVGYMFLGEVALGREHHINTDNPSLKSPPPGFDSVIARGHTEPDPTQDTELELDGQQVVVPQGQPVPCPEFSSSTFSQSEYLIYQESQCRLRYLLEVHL
In words: Inhibition of recombinant human PARP3 using IRE-1 as substrate incubated for 1 hr by chemiluminescence assay.

Test [5] addresses T3, Poly [ADP-ribose] polymerase tankyrase-1 (Homo sapiens, UniProt O95271).
T3 sequence (O95271 whole entry): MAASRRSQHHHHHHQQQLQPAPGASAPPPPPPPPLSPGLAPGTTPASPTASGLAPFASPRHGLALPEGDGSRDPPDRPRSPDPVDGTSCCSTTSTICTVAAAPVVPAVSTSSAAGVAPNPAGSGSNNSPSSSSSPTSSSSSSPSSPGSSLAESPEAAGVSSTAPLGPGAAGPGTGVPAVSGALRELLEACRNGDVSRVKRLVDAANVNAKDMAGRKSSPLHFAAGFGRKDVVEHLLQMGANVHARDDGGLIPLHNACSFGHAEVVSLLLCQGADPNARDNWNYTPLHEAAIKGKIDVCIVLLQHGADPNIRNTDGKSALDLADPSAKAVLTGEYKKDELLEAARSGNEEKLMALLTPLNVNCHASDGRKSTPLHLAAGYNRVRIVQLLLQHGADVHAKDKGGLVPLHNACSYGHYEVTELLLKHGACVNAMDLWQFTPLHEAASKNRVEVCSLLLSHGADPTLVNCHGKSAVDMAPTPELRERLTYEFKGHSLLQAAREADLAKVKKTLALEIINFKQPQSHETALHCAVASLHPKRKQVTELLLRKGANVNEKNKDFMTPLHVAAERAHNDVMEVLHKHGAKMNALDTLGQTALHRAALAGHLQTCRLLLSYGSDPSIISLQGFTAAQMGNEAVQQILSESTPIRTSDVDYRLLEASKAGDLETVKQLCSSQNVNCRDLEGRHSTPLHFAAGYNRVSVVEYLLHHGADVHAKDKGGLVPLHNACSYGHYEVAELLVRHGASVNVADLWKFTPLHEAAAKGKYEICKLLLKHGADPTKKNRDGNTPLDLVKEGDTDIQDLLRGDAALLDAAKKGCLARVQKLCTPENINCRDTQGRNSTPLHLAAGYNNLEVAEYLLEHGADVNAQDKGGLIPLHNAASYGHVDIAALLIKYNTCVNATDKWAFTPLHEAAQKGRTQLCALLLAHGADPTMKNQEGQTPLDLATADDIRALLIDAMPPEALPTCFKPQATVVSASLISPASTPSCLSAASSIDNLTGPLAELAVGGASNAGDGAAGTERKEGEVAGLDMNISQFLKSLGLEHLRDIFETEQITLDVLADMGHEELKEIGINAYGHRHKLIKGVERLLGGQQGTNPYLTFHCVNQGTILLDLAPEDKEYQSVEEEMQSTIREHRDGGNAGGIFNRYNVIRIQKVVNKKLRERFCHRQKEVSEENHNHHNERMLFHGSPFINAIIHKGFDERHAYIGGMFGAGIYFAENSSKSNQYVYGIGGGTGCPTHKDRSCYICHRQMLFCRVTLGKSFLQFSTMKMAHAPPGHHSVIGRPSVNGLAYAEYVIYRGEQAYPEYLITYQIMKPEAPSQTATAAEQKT
In words: Inhibition of TNKS1 (unknown origin).

Test [6] has as its target T4, Protein mono-ADP-ribosyltransferase PARP14 (Homo sapiens, UniProt Q460N5). In words: Inhibition of human PARP14 MD2 expressed in Escherichia coli BL21 (DE3) incubated for 30 mins by AlphaScreen assay. In general terms: Alpha assays give light when donor and acceptor beads are brought close together.
Test [7] addresses T4, Protein mono-ADP-ribosyltransferase PARP14. In words: Binding affinity to CM5 sensor chip immobilized human PARP14 MD2 expressed in Escherichia coli BL21 (DE3) assessed as dissociation constant measured after 6 mins by SPR analysis. For orientation: In SPR one partner is held on a chip, and binding of the other changes the refractive index at the surface.
Test [8] has the same target. In words: Inhibition of PARP14 (unknown origin).
The target of test [9] is Poly [ADP-ribose] polymerase 1 (Homo sapiens, UniProt P09874). In words: Inhibition of PARP1 (unknown origin).
Chain of Poly [ADP-ribose] polymerase 1 (P09874 whole entry): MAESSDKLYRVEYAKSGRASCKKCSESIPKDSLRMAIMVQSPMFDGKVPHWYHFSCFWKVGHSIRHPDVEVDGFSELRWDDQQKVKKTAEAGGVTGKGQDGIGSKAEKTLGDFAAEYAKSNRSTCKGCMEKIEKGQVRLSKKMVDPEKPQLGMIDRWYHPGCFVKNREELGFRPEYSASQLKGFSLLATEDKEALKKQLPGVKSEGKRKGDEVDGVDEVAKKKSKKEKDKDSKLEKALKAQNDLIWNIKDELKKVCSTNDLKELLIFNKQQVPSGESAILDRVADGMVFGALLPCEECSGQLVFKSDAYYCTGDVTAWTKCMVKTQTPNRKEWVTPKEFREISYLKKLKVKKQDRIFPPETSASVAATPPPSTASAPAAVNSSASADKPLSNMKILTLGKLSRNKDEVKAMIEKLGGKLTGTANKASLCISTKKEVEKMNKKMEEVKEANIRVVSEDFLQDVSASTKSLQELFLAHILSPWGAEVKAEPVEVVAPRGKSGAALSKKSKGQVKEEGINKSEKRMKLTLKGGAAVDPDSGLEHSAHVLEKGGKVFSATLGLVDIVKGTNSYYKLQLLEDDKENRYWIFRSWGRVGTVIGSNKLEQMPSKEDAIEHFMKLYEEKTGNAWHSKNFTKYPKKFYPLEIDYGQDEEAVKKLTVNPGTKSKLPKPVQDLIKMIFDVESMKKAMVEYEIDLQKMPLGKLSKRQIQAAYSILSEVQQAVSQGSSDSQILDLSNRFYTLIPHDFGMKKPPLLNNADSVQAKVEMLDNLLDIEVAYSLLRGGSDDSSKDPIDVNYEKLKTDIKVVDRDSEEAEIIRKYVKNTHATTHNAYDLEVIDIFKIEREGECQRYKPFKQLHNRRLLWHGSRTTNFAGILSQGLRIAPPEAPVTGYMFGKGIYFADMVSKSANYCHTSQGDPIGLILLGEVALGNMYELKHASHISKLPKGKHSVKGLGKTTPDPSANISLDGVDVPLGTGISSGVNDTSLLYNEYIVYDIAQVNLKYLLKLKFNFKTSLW
The target of test [10] is Poly [ADP-ribose] polymerase 2 (Homo sapiens, UniProt Q9UGN5). The test is described as follows: Inhibition of PARP2 (unknown origin).
Chain of Poly [ADP-ribose] polymerase 2 (Q9UGN5 whole entry): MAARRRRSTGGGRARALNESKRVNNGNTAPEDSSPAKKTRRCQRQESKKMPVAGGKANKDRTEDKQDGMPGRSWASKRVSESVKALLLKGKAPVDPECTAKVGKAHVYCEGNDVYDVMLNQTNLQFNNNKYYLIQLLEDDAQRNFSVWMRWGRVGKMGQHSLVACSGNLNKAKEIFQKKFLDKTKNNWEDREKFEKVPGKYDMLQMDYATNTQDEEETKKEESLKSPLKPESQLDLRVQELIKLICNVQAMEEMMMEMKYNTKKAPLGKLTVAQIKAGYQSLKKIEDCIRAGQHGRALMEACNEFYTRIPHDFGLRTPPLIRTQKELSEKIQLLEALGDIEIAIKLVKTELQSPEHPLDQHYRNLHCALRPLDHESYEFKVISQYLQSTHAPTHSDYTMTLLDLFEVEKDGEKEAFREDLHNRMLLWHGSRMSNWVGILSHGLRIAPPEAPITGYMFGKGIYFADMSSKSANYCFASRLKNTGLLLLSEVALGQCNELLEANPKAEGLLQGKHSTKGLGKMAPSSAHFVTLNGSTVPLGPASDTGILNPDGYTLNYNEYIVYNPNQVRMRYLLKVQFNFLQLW
The target of test [11] is T5, Protein mono-ADP-ribosyltransferase PARP12 (Homo sapiens, UniProt Q9H0J9).
T5 sequence (Q9H0J9 whole entry): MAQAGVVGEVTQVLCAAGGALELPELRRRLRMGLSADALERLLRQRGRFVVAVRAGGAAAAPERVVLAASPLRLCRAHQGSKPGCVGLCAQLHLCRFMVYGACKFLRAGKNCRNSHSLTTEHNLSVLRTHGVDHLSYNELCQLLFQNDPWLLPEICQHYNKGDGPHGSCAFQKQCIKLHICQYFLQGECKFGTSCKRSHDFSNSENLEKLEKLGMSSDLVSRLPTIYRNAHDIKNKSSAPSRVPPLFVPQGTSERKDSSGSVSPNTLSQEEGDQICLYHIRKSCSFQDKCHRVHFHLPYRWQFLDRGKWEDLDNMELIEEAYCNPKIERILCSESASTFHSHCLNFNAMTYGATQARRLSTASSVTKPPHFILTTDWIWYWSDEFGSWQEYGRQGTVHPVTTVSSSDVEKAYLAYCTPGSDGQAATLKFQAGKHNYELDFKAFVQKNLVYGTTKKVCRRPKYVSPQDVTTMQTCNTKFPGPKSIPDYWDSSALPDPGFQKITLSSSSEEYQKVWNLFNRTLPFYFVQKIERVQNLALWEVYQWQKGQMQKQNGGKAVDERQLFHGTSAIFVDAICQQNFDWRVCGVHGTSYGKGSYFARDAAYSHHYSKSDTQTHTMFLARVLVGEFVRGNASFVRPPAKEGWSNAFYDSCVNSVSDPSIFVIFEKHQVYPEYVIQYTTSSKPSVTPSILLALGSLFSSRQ
The test is described as follows: Inhibition of biotinylated recombinant human PARP12 expressed in Escherichia coli BL21 (DE3).

Test [12] concerns the target T6, Protein mono-ADP-ribosyltransferase PARP10 (Homo sapiens, UniProt Q53GL7).
T6 sequence (Q53GL7 whole entry): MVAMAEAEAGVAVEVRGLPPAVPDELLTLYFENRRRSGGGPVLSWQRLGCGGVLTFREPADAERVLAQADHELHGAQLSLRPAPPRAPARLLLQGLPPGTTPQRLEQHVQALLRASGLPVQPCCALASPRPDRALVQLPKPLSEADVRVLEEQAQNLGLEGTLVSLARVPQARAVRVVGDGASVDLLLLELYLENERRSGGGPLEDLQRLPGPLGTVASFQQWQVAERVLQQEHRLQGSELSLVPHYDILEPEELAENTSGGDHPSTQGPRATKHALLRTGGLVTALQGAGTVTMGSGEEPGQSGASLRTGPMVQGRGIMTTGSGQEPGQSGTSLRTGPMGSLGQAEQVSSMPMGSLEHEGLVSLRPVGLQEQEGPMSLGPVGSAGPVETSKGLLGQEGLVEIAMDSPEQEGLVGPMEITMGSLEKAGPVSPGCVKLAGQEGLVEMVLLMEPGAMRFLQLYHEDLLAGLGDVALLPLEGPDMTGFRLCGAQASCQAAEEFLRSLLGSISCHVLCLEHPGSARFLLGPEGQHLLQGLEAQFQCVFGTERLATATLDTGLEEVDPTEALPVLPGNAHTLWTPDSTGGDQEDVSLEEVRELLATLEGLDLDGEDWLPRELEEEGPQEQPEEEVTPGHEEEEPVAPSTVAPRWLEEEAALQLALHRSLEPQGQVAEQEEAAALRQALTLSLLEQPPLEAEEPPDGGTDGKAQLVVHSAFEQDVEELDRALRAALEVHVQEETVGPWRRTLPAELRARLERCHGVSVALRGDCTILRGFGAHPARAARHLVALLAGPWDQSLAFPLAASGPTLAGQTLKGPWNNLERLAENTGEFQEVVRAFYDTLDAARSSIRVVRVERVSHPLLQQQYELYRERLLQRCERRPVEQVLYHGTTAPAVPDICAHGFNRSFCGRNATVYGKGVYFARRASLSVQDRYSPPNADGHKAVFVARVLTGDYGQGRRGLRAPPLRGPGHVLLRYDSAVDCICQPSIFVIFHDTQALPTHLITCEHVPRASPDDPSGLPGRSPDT
In words: Inhibition of PARP10 (unknown origin).

For test [13], the target named is Protein mono-ADP-ribosyltransferase PARP9 (Homo sapiens, UniProt Q8IXQ6). In words: Inhibition of PARP9 (unknown origin).
The test system of test [14] is NCI-H1373. The test is described as follows: Antitumor activity against human NCI-H1373 cells in xenograft model assessed as tumor growth inhibition relative to control. It is filed as functional. On the set-up: scale not given: the % may be the effect or the level left.

T4 sequence (Q460N5 whole entry): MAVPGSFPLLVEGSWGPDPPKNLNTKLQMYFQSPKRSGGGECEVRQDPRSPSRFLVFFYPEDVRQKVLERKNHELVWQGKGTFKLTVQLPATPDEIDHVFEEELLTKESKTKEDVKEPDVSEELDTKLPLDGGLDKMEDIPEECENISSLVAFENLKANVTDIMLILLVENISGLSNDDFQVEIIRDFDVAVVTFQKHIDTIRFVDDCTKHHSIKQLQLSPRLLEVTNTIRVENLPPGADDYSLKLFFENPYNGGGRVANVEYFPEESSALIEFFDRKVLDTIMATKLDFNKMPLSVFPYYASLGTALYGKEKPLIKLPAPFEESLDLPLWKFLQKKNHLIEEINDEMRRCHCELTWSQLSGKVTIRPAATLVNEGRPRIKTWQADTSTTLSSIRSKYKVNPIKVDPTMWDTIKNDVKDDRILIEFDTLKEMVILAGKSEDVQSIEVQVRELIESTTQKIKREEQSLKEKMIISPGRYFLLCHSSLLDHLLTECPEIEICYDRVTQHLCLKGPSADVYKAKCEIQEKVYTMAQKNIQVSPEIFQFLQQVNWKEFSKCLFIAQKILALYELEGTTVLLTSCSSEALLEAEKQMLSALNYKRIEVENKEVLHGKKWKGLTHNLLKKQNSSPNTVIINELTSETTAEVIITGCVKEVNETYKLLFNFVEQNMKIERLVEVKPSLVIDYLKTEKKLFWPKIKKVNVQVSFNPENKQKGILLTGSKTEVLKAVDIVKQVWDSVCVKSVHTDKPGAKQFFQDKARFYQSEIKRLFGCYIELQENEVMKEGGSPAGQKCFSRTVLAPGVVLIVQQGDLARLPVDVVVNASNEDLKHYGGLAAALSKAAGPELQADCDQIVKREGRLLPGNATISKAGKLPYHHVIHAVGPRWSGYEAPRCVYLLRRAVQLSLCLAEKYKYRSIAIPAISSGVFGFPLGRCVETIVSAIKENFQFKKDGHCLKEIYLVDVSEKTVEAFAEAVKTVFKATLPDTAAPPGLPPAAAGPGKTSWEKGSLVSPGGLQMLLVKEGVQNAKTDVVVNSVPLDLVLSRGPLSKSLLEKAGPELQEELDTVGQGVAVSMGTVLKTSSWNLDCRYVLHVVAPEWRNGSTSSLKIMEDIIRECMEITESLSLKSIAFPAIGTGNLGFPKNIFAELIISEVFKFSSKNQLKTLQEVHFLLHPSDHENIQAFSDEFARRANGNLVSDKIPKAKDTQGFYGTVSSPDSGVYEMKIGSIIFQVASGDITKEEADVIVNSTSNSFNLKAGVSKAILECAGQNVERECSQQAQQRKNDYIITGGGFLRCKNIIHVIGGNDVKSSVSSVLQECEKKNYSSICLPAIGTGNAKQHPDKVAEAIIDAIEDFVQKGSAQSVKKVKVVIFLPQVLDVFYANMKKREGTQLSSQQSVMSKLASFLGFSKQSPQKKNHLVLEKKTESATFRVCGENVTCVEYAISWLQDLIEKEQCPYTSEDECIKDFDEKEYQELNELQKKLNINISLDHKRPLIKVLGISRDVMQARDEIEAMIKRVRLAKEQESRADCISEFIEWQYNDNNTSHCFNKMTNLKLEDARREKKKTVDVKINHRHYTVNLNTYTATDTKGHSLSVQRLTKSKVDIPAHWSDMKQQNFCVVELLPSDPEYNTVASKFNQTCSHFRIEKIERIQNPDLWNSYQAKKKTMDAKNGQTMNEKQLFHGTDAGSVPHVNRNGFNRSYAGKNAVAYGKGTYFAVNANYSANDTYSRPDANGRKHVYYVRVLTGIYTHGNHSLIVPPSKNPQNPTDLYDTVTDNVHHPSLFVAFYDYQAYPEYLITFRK

What is called IC50 is the concentration that inhibits the measured activity by half. In the case of `NC(=O)c1ccc(Oc2ccc(C(N)=O)cc2)cc1`, the figures for the IC50 in [1] and in test [2] were 1.35 µM and 0.295 µM, respectively.
With `Nc1ncc2c(n1)CNC(=O)c1[nH]c(Br)c(Br)c1-2`, the IC50 came out at 0.427 µM in test [3] and 3.4 µM in test [4].
With `Cc1ccc2c(=O)[nH]c(CSc3ncccn3)nc2c1C`, the IC50 in [5] was > 10 µM.
In general, EC50 refers to the concentration needed to bring the measured effect to its halfway point. The term Kd denotes the equilibrium constant for the complex coming apart. In test [6], `COC(=O)c1sccc1NS(=O)(=O)c1ccc(C(F)(F)F)cc1[N+](=O)[O-]` showed an EC50 of 26.1 µM. For the same molecule, in [7], the Kd came out at 8 µM.
With `Cc1cccc2c(=O)[nH]c(CSc3ncccn3)nc12`, the results for the IC50 in test [8], in [9] and in [10] were 1.3 µM, 0.8 µM and 16 µM, respectively.
`CC#Cc1ccc2c(=O)[nH]c(CSc3ncccn3)nc2c1C`: in test [5], the IC50 was > 30 µM.
For the molecule `CCCNC(=O)[C@H](CNC(=O)CCOc1ccc(C(N)=O)cc1)NC(=O)CCCc1nc(-c2ccncc2)no1`, the IC50 in [11] is 33.5 µM.
As for `CNC(=O)[C@H](CNC(=O)CCn1cc[nH]c(=O)c1=O)NC(=O)c1ccc2c(c1)CCCC2=O`, the IC50 in test [12] came out at 25 µM.
Consider `COc1ccc(-n2[nH]c(C)c(Cc3c(Cl)cccc3Cl)c2=O)cc1`, for which, in test [6], the EC50 came to 27.1 µM. In test [7], the Kd came to 162 µM.
Take `NC(=O)c1ccc(OCCC(=O)NC[C@H](NC(=O)CCCc2nc(-c3ccncc3)no2)C(N)=O)cc1`: the IC50 in [11] is 38.5 µM.
Turning to `C[C@@H](COCCC(=O)N1CCN(c2ncc(C(F)(F)F)cn2)CC1)Nc1cn[nH]c(=O)c1C(F)(F)F` [ATAMPARIB], the IC50 in [13] is > 50 µM. Further, in [14], the Activity worked out at 49%.
